The text below walks through data of ChEMBL document CHEMBL5370533 (Eur J Med Chem, 2023).

A short description of series [1]: Tmax in rat at 10 mg/kg, po. Type of series: ADME, organism-based. As to conditions: in vivo.
The nature of series [2]: Toxicity against nu/nu mouse xenografted with human MV4-11 cells assessed as decrease in body weight at 25 mg/kg, po qd for 2 weeks. It counts as organism-based. As to conditions: in vivo, 336 h.
A short description of series [3]: Cytotoxicity against human PBMC cells assessed as inhibition of cell growth. Type of series: toxicity, cell-based.
For series [4], the target named is Receptor-type tyrosine-protein kinase FLT3 (Homo sapiens, UniProt P36888, D835Y). The series is described as follows: Binding affinity to FLT3 D835Y mutant (unknown origin).
For series [5], the system named is BaF3. The series is described as follows: Antiproliferative activity against mouse BaF3 cells harboring FLT3 D835V mutant assessed as inhibition of cell growth incubated for 72 hrs. Type of series: functional, cell-based. As to conditions: BaF3, 72 h.
Series [6] relates to BaF3. Description: cells. It counts as functional, cell-based. The following applies: Mus musculus, BaF3, 72 h.
Description: Antiproliferative activity against mouse BaF3 cells harboring FLT3 ITD/N676D mutant assessed as inhibition of cell growth incubated for 72 hrs
The nature of series [7]: Half life in Beagle dog at […], po. Type of series: ADME, organism-based, Canis lupus familiaris. The following applies: in vivo, dose 1.5 mg/kg.
Series [8] deals with Receptor-type tyrosine-protein kinase FLT3 (Homo sapiens, UniProt P36888, D835V). The series is described as follows: Binding affinity to FLT3 D835V mutant (unknown origin).
Series [9] relates to K562. Description: Antiproliferative activity against human K562 cells deficit of oncogenic FLT3 assessed as inhibition of cell growth. Type of series: functional, cell-based.
Series [10] deals with MV4-11. The series is described as follows: animal or person. As to conditions: Mus musculus, MV4-11, 336 h, route po, time 2 weeks. Type of series: functional, Homo sapiens.
Description: Antitumor activity against human MV4-11 cells xenografted in nu/nu mouse assessed as inhibition of tumor growth at 50 mg/kg, po qd for 2 weeks by vernier caliper analysis
Series [11] deals with SR. Description: Antiproliferative activity against human SR cells assessed as inhibition of cell growth. It counts as functional.
The target of series [12] is Receptor-type tyrosine-protein kinase FLT3 (Homo sapiens) (UniProt P36888). The series is described as follows: Inhibition of FLT3 in human MV4-11 cells assessed as decrease in phosphorylated ERK level incubated for 24 hrs by immunoblot analysis. Type of series: cell-based. As to conditions: dose 20-600 nM.
Series [13] has as its system ACHN. Description: Antiproliferative activity against human ACHN cells assessed as inhibition of cell growth. Type of series: functional.
Series [14] can be described thus: Cmax in Beagle dog at […], po. Type of series: ADME, organism-based, Canis lupus familiaris. Set-up: dose 1.5 mg/kg, route po. The following applies: in vivo.
The target in series [15] is Receptor-type tyrosine-protein kinase FLT3 (Homo sapiens) (UniProt P36888). Description: Inhibition of FLT3 in human MV4-11 cells assessed as decrease in phosphorylated STAT5 level incubated for 24 hrs by immunoblot analysis. Type of series: cell-based. The following applies: dose 20-600 nM.
The subject of series [16] is THP-1. Description: Antiproliferative activity against human THP-1 cells expressing wild type FLT3 assessed as inhibition of cell growth. It counts as functional, cell-based.
Series [17] can be described thus: Half life in rat at 10 mg/kg, po. Type of series: ADME, organism-based. As to conditions: in vivo.
Series [18] deals with CDK4/Cyclin D3 (Homo sapiens) (UniProt P11802+P30281). Description: Inhibition of CDK4/Cyclin D3 (unknown origin). Type of series: protein-complex assay. The following applies: concentration not given here.
The nature of series [19]: AUC(0 to t) in rat at 10 mg/kg, po. The arrangement: dose 10 mg/kg, route po. The following applies: in vivo. Type of series: ADME, organism-based.
Series [20] can be described thus: Oral bioavailability in Beagle dog at […]. As to conditions: in vivo, dose 1.5 mg/kg. It counts as ADME, organism-based, Canis lupus familiaris.
Series [21] addresses Cyclin-dependent kinase 2 (Homo sapiens, UniProt P24941). The series is described as follows: Inhibition of human CDK2 pretreated for 20 mins followed by [gamma-33P]-ATP addition and measured after 120 mins in presence of 10 uM ATP by radiometric Hot-SpotSM Kinase assay.
Series [22] has as its target Receptor-type tyrosine-protein kinase FLT3 (Homo sapiens, UniProt P36888, D835H). The series is described as follows: Binding affinity to FLT3 D835H mutant (unknown origin).
Series [23] can be described thus: Half life in human liver microsomes by LC-MS/MS analysis. It counts as ADME, Microsome.
The target in series [24] is Receptor-type tyrosine-protein kinase FLT3 (Homo sapiens, UniProt P36888, N841I). Description: Binding affinity to FLT3 N841I mutant (unknown origin).

Consider `O=C(Nc1ccc(N2CCNCC2)cc1)c1n[nH]cc1Nc1cc(Oc2ccccc2)ncn1`, for which the Tmax in series [1] was 4 h. Further, the Activity result in series [2] is reported as “Non-Toxic”. For the same molecule, the IC50 in series [3] was 831 nM; in series [5], 43 nM; in series [6], 54 nM; in [9] it was 572 nM; in [16], 904 nM; in series [21], 98.3 nM. The Kd in series [4] came to 7.16 nM; in [8], 1.54 nM; in series [22], 48.5 nM; in series [24], 77.2 nM. Further, the half-life in [7] is 11.1 h; in [17], 3.5 h; in [23], 3.1 h. Also, in series [10], the inhibition in vivo at 50 mg/kg turned out to be 94%. For the same molecule, the 50% growth inhibitory concentration (GI50) in series [11] and in series [13] was < 1000 nM throughout. Moreover, the inhibition result is “Dose-Dependent Effect” in series [12], “Dose-Dependent Effect” in [15] and 79.2% in [18]. Also, in series [14], the concentration peaked (Cmax) at 52.1 ng/mL. The molecule also showed an AUC(0-t) in series [19] of 1080 ng·h/mL. The same molecule gave a bioavailability in series [20] of 72.7%.
